Results published in US7704723B2, “Isolation and characterization of novel clostridial species” (The Board of Regents For Oklahoma State University, priority 2006, dated 2010).
Values after ≈ are worked out from the molar mass of the structure shown. Structures can show the parent of a compound that is named as a salt.

Assays:
strain P11 [1] = test: microbe, parasite or virus in culture
Method: (§1) Bacterial Strain and Cultivation Media. Clostridial strain P11 was used throughout the study. Carbon monoxide medium (COM) was used to cultivate and maintain the culture. The growth temperature was 37° C. COM is an undefined buffered medium initially pressurized to 10 psi (70 kPa) with N2/CO2 and then autoclaved for 15 minutes at 121° C. The medium contained per liter of distilled water: 25 ml mineral solution (Table 1), 10 ml trace metals solution (Table 2, 10 ml vitamin solution (Table 3), 1.0 g of yeast extract, 10 g of MES (2-[N-morpholino]ethanesulfonic acid), 0.001 g resazurin, 4.0 g cysteine.HCl, and 4.0 Na2S.9H2O; the initial pH of this medium was 6.1-6.3. The medium was prepared using strict anaerobic technique (Balch & Wolfe, 1976). Carbon monoxide was the sole substrate provided at 210 kPa (30 psi). Unless otherwise noted all growth experiments were conducted under a pressure of 30 psi with CO as the sole or primary substrate and were incubated horizontally to maximize gas diffusion into the medium. Standard inoculum size was about 2% (v/v) transferred from a stock culture that was growing in mid to late exponential phase, unless otherwise noted.
(§2) Analytical methods. Growth was measured spectrophotometrically at 600 nm (Spectronic 20D; Milton Roy) in aluminum seal tubes (Balch & Wolfe, 1976). Acetate and ethanol were measured simultaneously by a gas chromatograph (GC) equipped with a flame ionization detector (FID) on a Varian 3400 equipped with a 2 m steel column packed with an 80/120 Carbopak B-DA/4% carbowax resin 20M (Supelco, Bellfonte, Pa.). The column, injector, and detector temperature were 155, 200, and 200° C. respectively. Helium was the carrier gas and the flow rate was set at 30 ml min^−1. Hydrogen ion concentration was measured by electrode.
Ethanol tolerance. The effect of ethanol on CO metabolism and solvent production was investigated with strain P11. The initial maximum concentration at which strain P11 could survive was determined during the course of these studies. […] Liquid samples (1.0 mL) were extracted once the cells remained at stationary phase and stored frozen (−20° C.) until analyzed by GC and HPLC. After the maximum ethanol concentration for cell survival was determined semi-continuous batch culture experiments were conducted using 500 mL serum bottles containing between 100-200 mL of COM containing different concentrations of ethanol (20, 30, 40, and 50 g/L) to adapt strain P11 to high solvent conditions. The amended COM with ethanol was prepared by adding filter sterilized ethanol to pre-sterilized Balch tubes, and then purging with N/CO2 to remove oxygen. After the media was sterilized, the ethanol was then added to the appropriate concentrations. These bottles were inoculated with the P11 cells from the semi-continuous batch cultures that were already established above. Growth and pH were measured periodically. A portion of the medium extracted for those measurements was taken for analyses of ethanol and acetate concentrations.

[2] = test system: Clostridium ragsdalei strain P11; test: Growth of strain P11 on organic and gaseous substrates as sole carbon and energy sources; type: cell-based; details: Clostridium ragsdalei; malate and formate examined at pH 5.0-6.5
Method: Except for the deletion of NaHCO3 and an initial pH 6.3, growth on organic and gaseous substrates was performed as previously described (Tanner et. al., 1993). Resazurin (1 mg/L) was used as the redox indicator. Purified agar was added to the medium at a concentration of 2% for colony morphology description (Table 5). Heat labile substrates were filter sterilized (not autoclaved) and added from sterile stock solutions to a final concentration of 5 g/L before inoculation. The optimum temperature and pH (initial pH) was determined in medium containing fructose as the substrate. For determination of the optimum pH, media was buffered with HOMOPIPES (homopiperazine-N,N′-bis-2-[ethanesulfonic acid] (Research Organics, Cleveland, Ohio), MES (2-[N-morpholino]ethanesulfonic acid), or TES (N-tris [hydroxymethyl]methyl-2-aminoethanesulfonic acid) at (1.0 g/L). A 0.1 ml (˜2%) inoculum of fructose-grown cells was used to initiate growth. All media components used in these experiments were obtained from Sigma unless otherwise noted (Sigma Chemical Co., St. Louis, Mo.).
Analytical methods. […] For the substrate malate, utilization was analyzed by HPLC (“high-performance liquid chromatography”) equipped with a UV detector set at 214 nm using a Alltech, Prevail Organic Acid column (4.6×150 mm, 5 μm; Alltech, Deerfield, Mich.) with a mobile phase of 25 mM KH2PO4, pH 2.5 and 10% (v/v) methanol.

strain P11 [3] = test: Trace metals elimination (0x) and addition (10x) in CO medium; type: cell-based, Clostridium ragsdalei; details: for CO metabolism on elimination of the metal / Increase in solvent to acid ratio on elimination of the metal / Acetate production on elimination of the metal: 0x metal in COM; for CO metabolism at increased level of the metal: 10x metal in COM, especially after a 48 hour feeding
Method: Bacterial Strain and Cultivation Media. Clostridial strain P11 was used throughout the study. […] The growth temperature was 37° C. […] Analytical methods. […] Milton Roy) in aluminum seal tubes (Balch & Wolfe, 1976). […] Hydrogen ion concentration was measured by electrode. Trace metals. […] Triplicate tubes of unamended (1×) and amended (0× and 10×) media were inoculated with strain P11 where each of these individual trace metals were added to or eliminated from the COM at 10× and 0× the original metal concentration. The cultures were fed every 48 hours with CO. This was also completed in duplicate in 160 mL serum bottles to simulate small scale batch conditions. Stock solutions were prepared for each of the above metals and added during the media preparation before boiling and degassing. […] In order to adapt cells to the higher concentrations of metals, at least 2 transfers were made for each set-up. This experiment was performed in triplicate and growth was measured over 7 days after which pH and ethanol concentration analyses were completed.

strain P11 [4] = test: Metabolic inhibitor studies (FA/TFA) in CO medium; type: cell-based, Clostridium ragsdalei; details: for Ethanol production compared to the control strains: P11 in the presence of the inhibitor, identical conditions
Method: as §1, §2
Metabolic Inhibitor Studies. Filter sterilized anaerobic stock solutions of fluoroacetate (FA) and trifluoroacetate (TFA) (Sigma Chemical Co.) were prepared to final concentrations of 4.5M. Before preparation, the FA and TFA powders were allowed to sit overnight in small beakers in the anaerobic chamber to allow any trapped oxygen to diffuse from the powder. […] The inhibitors were usually added to the medium one day prior to inoculating with P11 to ensure anaerobicity was maintained. All additions were made anaerobically by syringe. During this study growth was measured periodically by spectroscopy. Toward the end of resting cell phase, liquid samples (1 mL) were taken and stored frozen (−20° C.) until analyzed by GC and HPLC.

thermophilic clostridium = details: cited from earlier work
[5] = iron increased tenfold compared to standard medium

Question: Which MIC (strain P11 [1]; Clostridium ragsdalei, P11, read-out: Minimum inhibitory concentration) does the source give for CCO [Ethanol] here?
Answer: Its MIC is 35 mg/mL (≈ 760 mM).

Question: And the “Growth at the 50 g/L ethanol concentration” value (strain P11 [1]; adapted semi-continuous batch culture)?
Answer: The value was ≤ 0.55 OD units.

Question: And the “Growth relative to the unamended control without ethanol” value (strain P11 [1]; all ethanol concentrations, 15-35 g/L)?
Answer: The value was “Growth was retarded”.

Question: What about the “Ethanol concentration at which the adapted culture functions fully” value (strain P11 [1]; culture adapted to ethanol) of the same molecule?
Answer: The value was 50 grams per liter.

Question: What about the “Highest ethanol concentration at which the adapted culture was established” value (strain P11 [1]; semi-continuous batch culture, stepwise adaptation from 20 g/L) of the same molecule?
Answer: Its value is 50 g/L.

Question: And the “Ethanol concentration in which P11 remains viable and will grow” value (strain P11 [1]; statement in the description)?
Answer: The value was “at least 60 g/L”.

Question: And the “Ethanol concentration initially tolerated” value (strain P11 [1]; strain P11, not adapted)?
Answer: Its value is “up to 30 g/L”.

Question: And the “Ethanol concentration that inhibited strain P11” value (strain P11 [1]; upon initial isolation)?
Answer: The value was 30 grams per liter.

Question: And the Growth with substrate [2]?
Answer: The Growth with substrate was “chemoorganotrophic growth was observed”.

Question: Which “CO metabolism on elimination of the metal” value (“CO metabolism on elimination” for short) (strain P11 [3]) does the source give for Iron [Fe] here?
Answer: The value was “limited CO metabolism”.

Question: What about the “Increase in solvent to acid ratio on elimination of the metal” value (strain P11 [3]) of the same molecule?
Answer: The value was ~300%.

Question: And the “CO metabolism at increased level of the metal” value (strain P11 [3])?
Answer: The value was “stimulated CO metabolism”.

Question: And the “Concentration of ethanol produced” value (strain P11 [3]; [5])?
Answer: The value was “doubles the concentration of ethanol produced”.

Question: And the “Production of acetic acid” value (strain P11 [3]; [5])?
Answer: Its value is “decreasing the production of acetic acid”.

Question: With O=C(O)C(F)(F)F [TFA, trifluoroacetate] as the molecule, how does the Growth yield (strain P11 [4]; COM containing 30 mM TFA) read?
Answer: Its Growth yield is “remained unchanged”.

Question: What about the “Increase in acetate produced” value (strain P11 [4]; COM containing 30 mM TFA) of the same molecule?
Answer: Its value is 52%.

Question: What about the “Increase in ethanol produced” value (strain P11 [4]; COM containing 30 mM TFA) of the same molecule?
Answer: Its value is 126%.

Question: What about the “Increase of solvent to acid ratio” value (strain P11 [4]; COM containing 30 mM TFA) of the same molecule?
Answer: Its value is 50%.

Question: And the “Ethanol production compared to the control strains” value (strain P11 [4])?
Answer: The value was “increase of ethanol production”.

Question: And the Acetate (strain P11 [4]; P11 with 60 mM TFA)?
Answer: The Acetate was 34.58 mM.

Question: What about the Ethanol (strain P11 [4]; P11 with 60 mM TFA) of the same molecule?
Answer: The Ethanol was 45.60 mM.

Question: What about the “Final OD 600” value (strain P11 [4]; P11 with 60 mM TFA) of the same molecule?
Answer: Its value is 0.641.

Question: And the “MIC (minimum inhibitory concentration)” value (strain P11 [4]; strain P11 in COM, CO substrate)?
Answer: The value was 150 mM.

Question: With [Ni] [Ni, nickel] as the molecule, how does the “CO metabolism on elimination” value (strain P11 [3]) read?
Answer: The value was “limited CO metabolism”.

Question: What about the “Increase in solvent to acid ratio on elimination of the metal” value (strain P11 [3]) of the same molecule?
Answer: The value was ~400%.

Question: And the “CO metabolism at increased level of the metal” value (strain P11 [3])?
Answer: Its value is “stimulated CO metabolism”.

Question: What does the source list for [Mo] [Mo, molybdenum]?
Answer: Acetate production on elimination of the metal (strain P11 [3]): increased acetate production; CO metabolism on elimination of the metal (strain P11 [3]): CO metabolism increased slightly; CO metabolism at increased level of the metal (strain P11 [3]): stimulated CO metabolism

Question: Which “Acetate production on elimination of the metal” value (strain P11 [3]) does the source give for [Cu] [Cu, copper] here?
Answer: Its value is “decreased acetate production”.

Question: What about the “CO metabolism on elimination” value (strain P11 [3]) of the same molecule?
Answer: Its value is “limited CO metabolism”.

Question: And the “CO metabolism at increased level of the metal” value (strain P11 [3])?
Answer: The value was “stimulated CO metabolism”.

Question: For O=C(O)CF [FA, fluoroacetate], which “Decrease of acetate production” value (strain P11 [4]; 30 mM FA and above) is on record?
Answer: The value was “nearly ninety percent”.

Question: What about the “Decrease of ethanol production” value (strain P11 [4]; 30 mM FA and above) of the same molecule?
Answer: The value was “fifty”.

Question: And the “Decrease of growth yield” value (strain P11 [4]; 30 mM FA and above)?
Answer: The value was “forty percent”.

Question: And the “Increase of ethanol to acetate ratio” value (strain P11 [4]; 30 mM FA and above)?
Answer: Its value is “eighty percent”.

Question: What about the “Growth yield (OD) or end products relative to the P11 control” value (strain P11 [4]; COM containing 20 mM FA) of the same molecule?
Answer: The value was “no significant differences”.

Question: And the MIC (strain P11 [4]; Clostridium ragsdalei, strain P11 in COM, CO substrate, read-out: MIC (minimum inhibitory concentration))?
Answer: Its MIC is 100 mM (≈ 7800 µg/mL).

Question: What about the “Ethanol production compared to the control strains” value (strain P11 [4]) of the same molecule?
Answer: The value was “increase of ethanol production”.

Question: And the Acetate (strain P11 [4]; P11 with 15 mM FA)?
Answer: Its Acetate is 48.72 mM.

Question: What about the Ethanol (strain P11 [4]; P11 with 15 mM FA) of the same molecule?
Answer: The Ethanol was 39.62 mM.

Question: What about the “Final OD 600” value (strain P11 [4]; P11 with 15 mM FA) of the same molecule?
Answer: The value was 0.741.

Question: And the “Concentration shown to inhibit growth” value (thermophilic clostridium)?
Answer: Its value is 50 mM.
